Measured values: patent EP2647626A1, “1-Aza-spiro[4.5]dec-3-ene and 1,8-diaza-spiro[4.5]dec-3-ene derivatives as pesticides” (Syngenta Participations AG, priority 2012, dated 2013)
Like-named read-outs stand apart in the source and are kept apart here.

What was measured:
Format in all cases: in vivo
[1] = tested on: Myzus persicae (green peach aphid); assay: Activity against Myzus persicae, mixed population, feeding/residual contact activity on sprayed cabbage plants; conditions: 144 h, read-out: activity against Myzus persicae
Description: (§1) (mixed population, feeding/residual contact activity, plant damage evaluation)
(§2) Cabbage plants infested with a mixed population of Myzus persicae were treated with diluted test solutions of the compounds in a spray chamber. 6 days after treatment, samples were checked for mortality and for plant damage (phytotoxicity), visual assessment being made using a 0-100% rating scale (100% = total damage to plant; 0% = no damage to plant).

cabbage plants = assay: Plant damage evaluation (phytotoxicity) on sprayed cabbage plants, visual 0-100% rating scale; conditions: concentration of 200ppm; 6 days after treatment; 100% = total damage to plant, 0% = no damage to plant
Description: Example B5: Activity against Myzus persicae (green peach aphid)
as §1, §2

[2] = tested on: Myzus persicae (green peach aphid); assay: Activity against Myzus persicae, mixed population, systemic/feeding activity, curative (pea seedling roots in test solution); conditions: 144 h, read-out: activity
Description: Example B2: Activity against Myzus persicae (green peach aphid) (mixed population, systemic/feeding activity, curative)
Roots of pea seedlings, infested with an aphid population of mixed ages, were placed directly in the test solutions. 6 days after introduction, samples were checked for mortality and special effects on the plant.

[3] = tested on: Tetranychus urticae (two-spotted spider mite); assay: Activity against Tetranychus urticae, mixed population, feeding/residual contact activity, preventive (bean leaf discs); conditions: foliar, 192 h, concentration of 400ppm, egg, larval and adult mortality checked 8 days later, bean leaf discs sprayed
Description: Example B4: Activity against Tetranychus urticae (two-spotted spider mite)
(mixed population, feeding/residual contact activity, preventive)
Bean leaf discs on agar in 24-well microtiter plates were sprayed with test solutions. After drying, the leaf discs were infested with mite populations of mixed ages. 8 days later, discs were checked for egg mortality, larval mortality, and adult mortality.

[4] = tested on: Myzus persicae (green peach aphid); assay: Activity against Myzus persicae, mixed population, feeding/residual contact activity, preventive (sunflower leaf discs); conditions: foliar, 144 h, read-out: activity
Description: Example B1: Activity against Myzus persicae (green peach aphid) (mixed population, feeding/residual contact activity, preventive)
Sunflower leaf discs were placed on agar in a 24-well microtiter plate and sprayed with test solutions. After drying, the leaf discs were infested with an aphid population of mixed ages. After an incubation period of 6 days, samples were checked for mortality and special effects (e.g. phytotoxicity).

[5] = concentration of 200ppm, mortality 6 days after treatment, cabbage plants, spray chamber
[6] = concentration of 400ppm, mortality checked 6 days after introduction, roots of pea seedlings in test solution
[7] = concentration of 400ppm, mortality checked after 6 days, sunflower leaf discs sprayed

Compound: CO[C@H]1CC[C@@]2(CC1)C(=O)C(c1cc(C)ccc1C)C(=O)N2c1ccccc1 (relative stereo) [P2.1, cis-3-(2,5-dimethyl-phenyl)-8-methoxy-1-phenyl-1-aza-spiro[4.5]decane-2,4-dione]
- mortality at 200 ppm [1, 5]: ≥ 80%

Compound: CCOC(=O)OC1=C(c2cc(C)ccc2C)C(=O)N(c2ccccc2)[C@]12CC[C@@H](OC)CC2 [P1.1, carbonic acid cis-3-(2,5-dimethyl-phenyl)-8-methoxy-2-oxo-1-phenyl-1-aza-spiro[4.5]dec-3-en-4-yl ester ethyl ester]
- mortality at 200 ppm [1, 5]: ≥ 80%

Compound: CCOC(=O)OC1=C(c2cc(C)ccc2C)C(=O)N(c2ccccc2)C12CCN(OC)CC2 [P1.2]
- damage to cabbage plants (cabbage plants): ≤ 10%
- mortality at 200 ppm [1]: ≥ 80%
- mortality at 400 ppm [2, 6]: > 80%
- mortality at 400 ppm [3]: > 80%

Compound: CCOC(=O)OC1=C(c2c(C)cc(Br)cc2C)C(=O)N(c2ccccc2)C12CCN(OC)CC2 [P1.3]
- damage to cabbage plants (cabbage plants): ≤ 10%
- mortality at 400 ppm [4, 7]: > 80%
- mortality at 200 ppm [1]: ≥ 80%
- mortality at 400 ppm [2, 6]: > 80%
- mortality at 400 ppm [3]: > 80%

Compound: CCOC(=O)OC1=C(c2c(C)cc(C)cc2C)C(=O)N(c2ccccc2)C12CCN(OC)CC2 [P1.4]
- mortality at 400 ppm [2, 6]: > 80%

Compound: CCOC(=O)OC1=C(c2c(C)cc(Cl)cc2C)C(=O)N(c2ccccc2)C12CCN(OC)CC2 [P1.5]
- damage to cabbage plants (cabbage plants): ≤ 10%
- mortality at 400 ppm [4, 7]: > 80%
- mortality at 200 ppm [1]: ≥ 80%
- mortality at 400 ppm [2, 6]: > 80%

Compound: CON1CCC2(CC1)C(=O)C(c1cc(C)ccc1C)C(=O)N2c1ccccc1 (centres unmarked) [P2.2]
- damage to cabbage plants (cabbage plants): ≤ 10%
- mortality at 200 ppm [1]: ≥ 80%

Compound: CON1CCC2(CC1)C(=O)C(c1c(C)cc(Br)cc1C)C(=O)N2c1ccccc1 (centres unmarked) [P2.3]
- damage to cabbage plants (cabbage plants): ≤ 10%
- mortality at 400 ppm [4, 7]: > 80%
- mortality at 200 ppm [1]: ≥ 80%
- mortality at 400 ppm [2, 6]: > 80%
- mortality at 400 ppm [3]: > 80%

Compound: CON1CCC2(CC1)C(=O)C(c1c(C)cc(C)cc1C)C(=O)N2c1ccccc1 (centres unmarked) [P2.4]
- damage to cabbage plants (cabbage plants): ≤ 10%
- mortality at 400 ppm [4, 7]: > 80%
- mortality at 200 ppm [1]: ≥ 80%
- mortality at 400 ppm [2, 6]: > 80%
- mortality at 400 ppm [3]: > 80%

Compound: CON1CCC2(CC1)C(=O)C(c1c(C)cc(Cl)cc1C)C(=O)N2c1ccccc1 (centres unmarked) [P2.5, 3-(4-chloro-2,6-dimethyl-phenyl)-8-methoxy-1-phenyl-1,8-diaza-spiro[4.5]decane-2,4-dione]
- damage to cabbage plants (cabbage plants): ≤ 10%
- mortality at 400 ppm [4]: > 80%
- mortality at 200 ppm [1]: ≥ 80%
- mortality at 400 ppm [2]: > 80%
